# Where two headings read alike, the source gives them in different places.
# Key:
# [1] = Rat tissue distribution test (oral, LC-MS-MS); type: in vivo; design: Hepatic drug concentration: unit not given here; conditions: for Hepatic drug concentration / Exposure level (0-4 h): oral 4 mg/kg; for Hepatic drug concentration / Kp: rat; for Exposure level (0-4 h): male SD rats; for Kp: male, SD, plasma set to 1, oral 4 mg/kg, read-out: Ratio of exposure level
# Protocol: Three healthy male SD rats (body weight range 220-250 g, Zhejiang Charles River) were taken and assigned into one group (n=3). Compound 48, Compound A9 or comparison compound Vonoprazan were administered orally at a dose of 4 mg/kg.
# Solvent for preparing pharmaceutical preparations: Pure water. The rats were fasted 4 h prior to the administration. […] The tissue was homogenized, and the corresponding blank tissue was used for preparation of a calibration curve and QC quantification. Blood samples should be centrifuged to extract plasma within 1 hour of collection and kept on crushed ice prior to the centrifugation. Plasma samples obtained by centrifugation were stored in a freezer until analysis. Centrifugation conditions: 4-10° C., 8000 rpm, 6 min. The concentration of the sample was determined by LC-MS-MS (MS03: Shimadzu LC30AD and API 4000)), and the exposure data were calculated by WINNOLIN software.
# [2] = biological target: H+/K+-ATPase (rabbit gastric mucosal microsomes) (Oryctolagus cuniculus (Rabbit), UniProt P27112); experiment: In vitro screening test of H+/K+-ATPase inhibition (malachite green); type: biochemical; conditions: pH 6.5, 37° C. 30 min, read-out: IC50, inhibitory effect on H+/K+-ATPase activity
# H+/K+-ATPase (rabbit gastric mucosal microsomes), sequence (P27112 whole entry): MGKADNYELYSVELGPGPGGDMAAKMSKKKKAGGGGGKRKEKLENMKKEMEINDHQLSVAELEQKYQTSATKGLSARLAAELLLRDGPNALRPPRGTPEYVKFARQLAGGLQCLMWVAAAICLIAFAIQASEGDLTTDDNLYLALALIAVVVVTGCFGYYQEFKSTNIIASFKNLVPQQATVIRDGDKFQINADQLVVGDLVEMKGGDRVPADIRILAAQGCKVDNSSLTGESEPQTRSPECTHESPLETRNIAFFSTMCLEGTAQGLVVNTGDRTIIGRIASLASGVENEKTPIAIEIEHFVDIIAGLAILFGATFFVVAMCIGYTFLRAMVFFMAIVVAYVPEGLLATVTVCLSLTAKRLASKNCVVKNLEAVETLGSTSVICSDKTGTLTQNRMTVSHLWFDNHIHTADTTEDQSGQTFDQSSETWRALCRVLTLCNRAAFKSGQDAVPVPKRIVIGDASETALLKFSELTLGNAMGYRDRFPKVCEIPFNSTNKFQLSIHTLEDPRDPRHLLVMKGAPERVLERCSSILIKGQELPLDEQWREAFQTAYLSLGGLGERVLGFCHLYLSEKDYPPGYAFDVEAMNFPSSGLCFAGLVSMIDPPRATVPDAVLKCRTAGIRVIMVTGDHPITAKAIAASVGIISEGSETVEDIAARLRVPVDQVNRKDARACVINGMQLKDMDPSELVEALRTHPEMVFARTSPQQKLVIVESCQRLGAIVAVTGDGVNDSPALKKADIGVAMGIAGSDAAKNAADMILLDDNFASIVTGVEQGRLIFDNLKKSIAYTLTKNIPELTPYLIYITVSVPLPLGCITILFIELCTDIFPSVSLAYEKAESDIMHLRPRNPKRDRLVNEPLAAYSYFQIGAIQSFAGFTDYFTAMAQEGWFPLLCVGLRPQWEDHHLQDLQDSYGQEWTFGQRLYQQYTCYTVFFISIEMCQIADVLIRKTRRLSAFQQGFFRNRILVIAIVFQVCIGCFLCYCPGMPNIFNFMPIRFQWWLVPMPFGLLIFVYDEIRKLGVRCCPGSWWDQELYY
# H+/K+-ATPase (rabbit gastric mucosal microsomes), sequence (P18597 whole entry partner): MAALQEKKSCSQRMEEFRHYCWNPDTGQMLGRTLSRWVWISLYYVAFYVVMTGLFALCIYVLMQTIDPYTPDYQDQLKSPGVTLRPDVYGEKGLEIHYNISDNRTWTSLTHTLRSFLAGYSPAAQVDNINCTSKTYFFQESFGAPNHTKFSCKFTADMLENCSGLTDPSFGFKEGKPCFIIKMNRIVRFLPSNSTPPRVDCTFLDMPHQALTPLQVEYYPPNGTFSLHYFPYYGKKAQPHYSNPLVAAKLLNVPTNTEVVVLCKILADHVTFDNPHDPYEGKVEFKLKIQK
# From the text: This test example evaluates the inhibitory effects of the compounds of the present invention on the activity of H+/K+-ATPase by an in vitro screening test, and expresses them with the IC50 values of the compounds (obtained by calculating the inhibition rates at different concentrations).
# • Compound solutions: The products (i.e., the compounds or the hydrochloride salt of compounds) obtained in the foregoing preparation examples of the present invention were each independently dissolved in DMSO to form solutions at suitable concentrations; • Buffer I: 50 mmol/L HEPEs-Tris, pH=6.5, 5 mmol/L magnesium chloride, […] valinomycin (J&K Scientific Ltd., goods No.: 227304); • Buffer II: 50 mmol/L HEPEs-Tris, pH=6.5, 5 mmol/L magnesium chloride, […] valinomycin, 5 mmol/L potassium chloride; • 5-adenosine triphosphate (ATP, Sigma-Aldrich, goods No.: A2383) solution: Dilute ATP with buffer I to 5 mM; • Malachite green solution: Dissolve 0.12 wt % malachite green (J&K Scientific Ltd., goods No.: 913120) in 2.5 mol/L sulfuric acid, 7.5 wt % ammonium molybdate (J&K Scientific Ltd., goods No.: 128321) and 11% Tween 20(V/V). During use, sulfuric acid, ammonium molybdate and Tween 20 are mixed in a ratio of 100:25:2; • Rabbit gastric mucosal microsomes (rich in H+/K+-ATPase, self-extracted), extracted by sucrose gradient centrifugation: The rabbit stomach was washed with tap water and 3M NaCl solution, respectively, and then the surface water was removed with filter paper. A pre-cooled homogenization buffer (4 ml/g tissue) was added and homogenized for 2-5 min in a tissue homogenizer. After the homogenizing, if there are large tissue particles, they can be removed by centrifugation (600 g, 10 min). The supernatant was then transferred to a clean centrifuge tube and centrifuged at 20,000 g for 30 min, then the supernatant was transferred to a clean centrifuge tube and further centrifuged at 100,000 g for 90 min and the precipitate was collected; the precipitate was suspended in homogenate and blown evenly, and the protein concentration was measured by the Bradford's method and adjusted to 10 mg/ml; 7.5 wt % Ficoll's layering solution was added in equal proportions. After centrifugation at 100,000 g for 60 min, the middle layer (H^+/K^+-ATPase-enriched gastric membranes) was collected in a clean centrifuge tube, diluted with homogenate by 4-5 times, and then centrifuged at 100,000 g for another 90 min, and the precipitate was collected; the precipitate was suspended in homogenate and homogenized in a glass homogenizer, and the protein concentration was measured by the Bradford's method and adjusted to 22.5 mg/ml. It was frozen at −80° C. and stored for future use.
# 5 μL of rabbit gastric mucosal microsomes (H^+/K^+-ATPase) was added to 45 μL of buffer II, then 5 μL of compound solution was added, and then 5 μL of 5 mM ATP solution was added to start the reaction and pre-react at 37° C. for 30 min. 15 μL of malachite green solution was added to terminate the reaction, balancing was conducted at room temperature for 20 min, and read the optical absorbance at 620 nm.
# Meanwhile, the reaction of the same volume was carried out without addition of potassium chloride as a background, which was subtracted when calculating enzymatic activity.
# [3] = tested on: histamine-induced gastric acid secretion; experiment: Inhibition of histamine-induced gastric acid secretion in rats (pylorus ligation); type: in vivo, rat; conditions: SD rats, total acid over 3 h after histamine
# Protocol: 70 SPF-level SD rats with a weight of 180-220 g (Hangzhou Medical College (produced)), randomly grouped by weight, including negative control groups (isovolumetric saline) and model control groups (isovolumetric saline), and compounds obtained in the foregoing preparation examples of the present invention (i.e., compounds or compound hydrochlorides) (2 mg/kg or 4 mg/kg), 10 rats each group, including 5 males and 5 females. The rats were fasted, but were allowed to drink water for 24 h. After 24 h, the rats were given the compound at 1 ml/100 g by gavage, once in each group, and the rats in the negative control groups and the model groups were given an equal volume of saline by gavage. After that, the rats were anesthetized with chloral hydrate 300 mg/kg (1 ml/100 g) and fixed on a rat plate, and the abdominal wall was incised along the abdominal midline from the subxiphoid process of the sternum, and the incision was approximately 2-3 cm and was made on the left costal margin, and the stomach was exposed to the incision by gently pushing it with the fingers upwards. The pylorus was ligated with a thread under the pylorus (other neighboring vessels were not ligated), and the abdominal wall incision was sutured. The animals were given histamine dihydrochloride (30 mg/10 ml/kg) subcutaneously after 1 h of gavage of the test compound or saline. After 3 h of histamine administration, the rats were asphyxiated with excess CO2, stomachs were removed, stomach contents were collected and centrifuged at 3000 rpm/min for 10 min, and the acid solution was titrated with 0.1 mol/L NaOH to pH7.0. The total acidity and acid inhibition rate during the 3 h period were calculated.
# Acid inhibition rate (%)=(Total acid in the model group−total acid in the test group)/total acid in the model group×100%
Compound,IC50 [2] [nM],Acid inhibition rate ([3]; 2 mg/kg by gavage) [%],other results
"CNCc1cc(-c2ccccc2F)n(S(=O)(=O)c2cccnc2)c1 [Vonoprazan, reference compound]",–,–,"Hepatic drug concentration ([1]; liver, 15 min): 9919; Hepatic drug concentration ([1]; liver, 1 h): 1192; Hepatic drug concentration ([1]; liver, 2 h): 632; Hepatic drug concentration ([1]; liver, 4 h): 162; Hepatic drug concentration ([1]; liver, 24 h): 23.7"
"CNCc1cn(S(=O)(=O)c2cccnc2)c(-c2ccc(OCC3CC3)cc2F)c1OC [Compound 48, 1-(5-(4-(cyclopropylmethoxy)-2-fluorophenyl)-4-methoxy-1-(pyridin-3-ylsulfonyl)-1H-pyrrolo-3-yl)-N-methylmethylamine]",36,75,Acid inhibition rate ([3]; 4 mg/kg by gavage): 86%; Exposure level (0-4 h) ([1]; liver): 7585.5 ng·h/mL; Kp ([1]; liver): 88.4; Kp ([1]; plasma): 1; Kp ([1]; stomach): 171; Exposure level (0-4 h) ([1]; plasma): 85.8 ng·h/mL; Exposure level (0-4 h) ([1]; stomach): 14693.7 ng·h/mL
CNCc1cc(-c2ccc(OCC3COC3)cc2F)n(S(=O)(=O)c2cccnc2)c1 [Compound A12],119,63,–
CNCc1cc(-c2ccc(OCc3cnn(C)c3)cc2F)n(S(=O)(=O)c2cccnc2)c1 [Compound A3],51.6,65,–
CNCc1cc(-c2ccc(OCC3CCOCC3)cc2F)n(S(=O)(=O)c2cccnc2)c1 [Compound 6],149,48,–
CNCc1cc(-c2ccc(OCC3CCOCC3)cc2F)n(S(=O)(=O)c2cccc(C#N)c2)c1 [Compound 28],30.8,71,–
CNCc1cc(-c2ccc(OCC3CC3(F)F)cc2F)n(S(=O)(=O)c2cccnc2)c1 (centres unmarked) [Compound A10],27.7,81,Acid inhibition rate ([3]; 4 mg/kg by gavage): 87%
CNCc1cc(-c2ccc(OC(C)c3c(F)cccc3F)cc2F)n(S(=O)(=O)c2cccnc2)c1 (centres unmarked) [Compound 67],41,64,–
CNCc1cc(-c2ccc(OC(C)C3CCOCC3)cc2F)n(S(=O)(=O)c2cccc(OCCCOC)c2)c1 (centres unmarked) [Compound 37],157,56,–
